Where two headings read alike, the source gives them in different places.
Columns and labels:
Assay in all cases: Protection Tests in Mice
Type in all cases: in vivo
Staphylococcus = Staphylococcus Gray, read-out: PD50
Text: (§1) In vivo Activity of the Mutamicin 1 and Sisomicin
(§2) Protection Tests in Mice

Pseudomonas aeruginosa = tested on: Pseudomonas aeruginosa
Text: as §1, §2

Escherichia coli = tested on: Escherichia coli
Text: as §1, §2

CN[C@@H]1[C@@H](O)[C@@H](O[C@@H]2[C@@H](O)[C@H](O[C@H]3OC(CN)=CC[C@H]3N)[C@@H](N)C[C@H]2N)OC[C@]1(C)O [Sisomicin, O-2,6-Diamino-2,3,4,6-tetradeoxy-α-D-glycero-hex-4-eno-pryanosyl(1→4)-O-[3-deoxy-4-C-methyl-3-(methylamino)-B-L-arabinopyranosyl(1→6)] -2-deoxy-D-streptamine, reference compound]
ED50 (Staphylococcus): 1.8 mg/kg
ED50 (Pseudomonas aeruginosa; Pseudomonas aeruginosa 2552, read-out: PD50): 2.8 mg/kg
ED50 (Pseudomonas aeruginosa; Pseudomonas aeruginosa 2557, read-out: PD50): 2.7 mg/kg
ED50 (Pseudomonas aeruginosa; sc, Pseudomonas aeruginosa Sc., read-out: PD50): 1.1 mg/kg
ED50 (Escherichia coli; Escherichia coli 6922, read-out: PD50): 2 mg/kg
ED50 (Escherichia coli; Escherichia coli Sc., read-out: PD50): 1.7 mg/kg

From patent US4011390A, “Semi-synthetic aminocyclitol aminoglycoside antibiotics and methods for the preparation thereof” (Schering-Plough Corporation, priority 1974, dated 1977)
